# Experimental data from ChEMBL document CHEMBL3045329, “Synthesis, biological evaluation, and pharmacokinetic profiling of benzophenone derivatives as tumor necrosis factor-alpha and interleukin-6 inhibitors” (Med Chem Res, 2012).
# What was measured:
# [1] = Cytotoxicity against Homo sapiens (human) […] at 10 uM after 24 hr; assay type: cell-based; details: cck8, 24 h
# THP-1 [2] = experiment: Anti-inflammatory activity in Homo sapiens (human) PMA-stimulated THP1 cells assessed as inhibition of LPS-induced TNFalpha production at 10 uM incubated for 30 min prior to LPS-challenge measured after 24 hr by ELISA; assay type: functional; details: values are per cent of control
# THP-1 [3] = experiment: Anti-inflammatory activity in Homo sapiens (human) PMA-stimulated THP1 cells assessed as inhibition of LPS-induced IL6 production at 10 uM incubated for 30 min prior to LPS-challenge measured after 24 hr by ELISA; assay type: functional
# THP-1 [4] = experiment: Anti-inflammatory activity in Homo sapiens (human) PMA-stimulated THP1 cells assessed as inhibition of LPS-induced IL6 production incubated for 30 min prior to LPS-challenge measured after 24 hr by ELISA; assay type: functional, cell-based
# [5] = Cytotoxicity against Homo sapiens (human) […] cells at 1 uM after 24 hr; assay type: cell-based
# THP-1 [6] = experiment: Anti-inflammatory activity in Homo sapiens (human) PMA-stimulated THP1 cells assessed as inhibition of LPS-induced TNFalpha production at 1 uM incubated for 30 min prior to LPS-challenge measured after 24 hr by ELISA; assay type: functional
# THP-1 [7] = experiment: Anti-inflammatory activity in Homo sapiens (human) PMA-stimulated THP1 cells assessed as inhibition of LPS-induced IL6 production at 1 uM incubated for 30 min prior to LPS-challenge measured after 24 hr by ELISA; assay type: functional
smiles,measurement,setting,value
COc1cc(OC)c(C(=O)c2ccccc2)c(O)c1Br,Activity,[1],38%
same,"response, % of control at 10 µM",THP-1 [2],19%
same,inhibition at 10 µM,THP-1 [3],80%
COc1cc(OC)c(C(=O)c2ccccc2F)c(O)c1Br,Activity,[1],46%
same,"response, % of control at 10 µM",THP-1 [2],0%
same,inhibition at 10 µM,THP-1 [3],76%
COc1cc(OC)c(C(=O)c2ccc(F)cc2)c(O)c1Br,Activity,[1],19%
same,"response, % of control at 10 µM",THP-1 [2],0%
same,inhibition at 10 µM,THP-1 [3],63%
same,IC50,THP-1 [4],190 nM
COc1cc(OC)c(C(=O)c2ccccc2C)c(O)c1Br,Activity,[1],40%
same,"response, % of control at 10 µM",THP-1 [2],0%
same,inhibition at 10 µM,THP-1 [3],70%
COc1cc(OC)c(C(=O)c2cccc(C)c2)c(O)c1Br,Activity,[1],32%
same,"response, % of control at 10 µM",THP-1 [2],4%
same,inhibition at 10 µM,THP-1 [3],76%
COc1ccc(C(=O)c2c(OC)cc(OC)c(Br)c2O)cc1,Activity,[1],34%
same,"response, % of control at 10 µM",THP-1 [2],6%
same,inhibition at 10 µM,THP-1 [3],82%
COc1cc(OC)c(C(=O)c2cccc(Cl)c2)c(O)c1Br,Activity,[1],33%
same,"response, % of control at 10 µM",THP-1 [2],10%
same,inhibition at 10 µM,THP-1 [3],78%
C[C@@H]1C[C@H]2[C@@H]3CCC4=CC(=O)C=C[C@]4(C)[C@@]3(F)[C@@H](O)C[C@]2(C)[C@@]1(O)C(=O)CO [DEXAMETHASONE],Activity,[5],0%
same,inhibition at 1 µM,THP-1 [6],72%
same,inhibition at 1 µM,THP-1 [7],94%
